The test system of the experiment is Sprague-Dawley rats. As to conditions: rat, in vivo.

Take `CC(C)C[C@H](CN)CC(=O)O` [Pregabalin, pregabalin]: the “activity on mechanical allodynia (von Frey), days 14 and 21” value is “active”.

With GCCSDPRCRYRCR [RgIA], the “OXA-induced pain threshold decrease (von Frey), day 7, 30 min” value was “reverted”.

The record behind these values is US10633417B2 (priority 2013, dated 2020).
